The values that follow come from publication PMC5344672 (Journal of medicinal chemistry, 2016).

One series has as its target MOR-1 (Mus musculus, UniProt P42866). Briefly: [35S]GTPγS functional assay, MOR-1 transfected cells. It is filed as biochemical. Conditions: in words.
The target of another series is KOR-1 (Mus musculus, UniProt P33534). It is filed as biochemical.
The next series deals with DOR-1 (Mus musculus, UniProt P32300). Briefly: [35S]GTPγS functional assay, DOR-1 transfected cells. It is filed as biochemical. Conditions: in words. A general note: GTPγS resists hydrolysis and so accumulates on activated G proteins.
Sequence of DOR-1 (P32300 whole entry): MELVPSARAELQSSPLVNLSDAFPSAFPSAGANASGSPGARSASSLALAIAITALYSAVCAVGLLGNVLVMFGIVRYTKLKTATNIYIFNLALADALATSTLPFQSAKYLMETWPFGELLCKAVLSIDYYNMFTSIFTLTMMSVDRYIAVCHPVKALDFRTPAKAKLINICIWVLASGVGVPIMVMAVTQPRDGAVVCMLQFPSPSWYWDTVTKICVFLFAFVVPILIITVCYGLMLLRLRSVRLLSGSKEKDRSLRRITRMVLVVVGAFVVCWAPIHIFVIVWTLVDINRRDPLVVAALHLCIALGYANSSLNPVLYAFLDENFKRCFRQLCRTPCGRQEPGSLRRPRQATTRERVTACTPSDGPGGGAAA
The target in series [1] is panel of other nonopioid drug targets. Put plainly: PDSP screening panel. Format: binding. Conditions: read-out: Ki at nonopioid drug targets.
For the next series, the system named is C57BL/6 mice. Briefly: Respiratory rate. Format: in vivo, mouse.
Series [2] has as its system mice. Briefly: Gastrointestinal transit. Format: in vivo, mouse.
Series [3] concerns mice. Briefly: Antinociceptive tolerance after repeated dosing. It is filed as in vivo, mouse. The settings on record: twice daily dosing.
Series [4] concerns mice. Briefly: Antisense oligodeoxynucleotide mapping of tail flick antinociception. Format: in vivo, mouse. The settings on record: 3 1.5 mg/kg sc, antisense icv days 1, 3, 5, test day 6.
The target in a further series is 5HT7 (Homo sapiens, UniProt P34969). Put plainly: PDSP screening. It is filed as binding. Conditions: in words (Table S1).
Sequence of 5HT7 (P34969 whole entry, species assumed): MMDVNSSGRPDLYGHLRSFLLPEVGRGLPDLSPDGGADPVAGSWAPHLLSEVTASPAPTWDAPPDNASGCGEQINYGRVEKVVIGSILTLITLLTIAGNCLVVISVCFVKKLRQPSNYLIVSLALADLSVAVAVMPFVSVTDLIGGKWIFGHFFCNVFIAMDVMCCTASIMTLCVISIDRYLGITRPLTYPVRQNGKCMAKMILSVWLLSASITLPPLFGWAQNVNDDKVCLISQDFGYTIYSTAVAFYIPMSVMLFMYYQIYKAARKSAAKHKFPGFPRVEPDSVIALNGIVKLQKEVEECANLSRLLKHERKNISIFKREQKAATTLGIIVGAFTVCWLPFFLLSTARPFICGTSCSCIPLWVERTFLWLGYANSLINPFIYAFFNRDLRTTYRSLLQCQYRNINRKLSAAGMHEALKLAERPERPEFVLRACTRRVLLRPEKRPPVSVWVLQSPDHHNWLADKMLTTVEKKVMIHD
Another series has as its target T1, α2A adrenergic receptor (Homo sapiens, UniProt P08913).
T1 sequence (P08913 1-465): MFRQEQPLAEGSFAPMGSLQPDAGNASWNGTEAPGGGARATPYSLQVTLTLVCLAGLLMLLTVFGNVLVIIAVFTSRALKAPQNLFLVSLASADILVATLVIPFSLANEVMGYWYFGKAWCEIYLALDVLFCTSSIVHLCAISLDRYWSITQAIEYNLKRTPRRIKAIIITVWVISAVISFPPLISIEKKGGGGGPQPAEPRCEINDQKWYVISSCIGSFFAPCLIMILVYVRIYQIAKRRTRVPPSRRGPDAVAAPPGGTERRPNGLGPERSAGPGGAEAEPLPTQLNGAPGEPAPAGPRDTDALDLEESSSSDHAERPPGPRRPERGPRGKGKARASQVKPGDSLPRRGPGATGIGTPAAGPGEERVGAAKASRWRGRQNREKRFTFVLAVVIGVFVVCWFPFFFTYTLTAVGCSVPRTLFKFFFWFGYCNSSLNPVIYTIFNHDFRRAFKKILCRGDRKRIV
Put plainly: PDSP screening. The settings on record: in words (Table S1). Format: binding.

Series [5] deals with mice. Briefly: Radiant heat tail flick antinociception. Format: in vivo, mouse.
Another series deals with T2, α2C adrenergic receptor (Homo sapiens, UniProt P18825).
T2 sequence (P18825 1-462): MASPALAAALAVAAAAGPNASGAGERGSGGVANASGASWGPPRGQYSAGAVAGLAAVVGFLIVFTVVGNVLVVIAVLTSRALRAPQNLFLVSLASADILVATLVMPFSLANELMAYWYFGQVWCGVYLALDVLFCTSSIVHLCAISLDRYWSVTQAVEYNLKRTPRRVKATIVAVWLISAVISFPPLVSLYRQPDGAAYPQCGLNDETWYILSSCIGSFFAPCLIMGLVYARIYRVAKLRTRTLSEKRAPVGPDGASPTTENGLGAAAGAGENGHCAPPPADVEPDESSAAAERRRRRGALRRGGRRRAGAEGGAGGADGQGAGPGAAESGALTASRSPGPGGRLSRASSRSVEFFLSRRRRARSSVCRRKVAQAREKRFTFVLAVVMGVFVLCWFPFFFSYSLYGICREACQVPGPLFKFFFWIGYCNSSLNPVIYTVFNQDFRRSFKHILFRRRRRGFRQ
Briefly: PDSP screening. It is filed as binding. The settings on record: in words (Table S1).

In series [6] the test system is mice. The settings on record: mouse, in vivo.
The subject of the next series is CD1 mice. Put plainly: Reversal of tail flick antinociception by selective antagonists. It is filed as in vivo, mouse. The settings on record: 3 1.5 mg/kg sc; β-FNA 40 mg/kg, norBNI 10 mg/kg, NTI 0.5 mg/kg, naloxone 1 mg/kg, yohimbine 10 mg/kg.
[7] abbreviates: higher dose: morphine 10 mg/kg, 3 3 mg/kg sc.
Where [8] appears, read: ~2× analgesic ED50: morphine 5 mg/kg sc, 3 1.2 mg/kg sc.
Where [9] appears, read: dose twice analgesic ED50: morphine 5 mg/kg sc, 3 1.5 mg/kg sc.

Entries after “also recorded” stand apart in the source; their conditions may differ. Some results are limits rather than exact numbers.

Sequence of MOR-1 (P42866 whole entry): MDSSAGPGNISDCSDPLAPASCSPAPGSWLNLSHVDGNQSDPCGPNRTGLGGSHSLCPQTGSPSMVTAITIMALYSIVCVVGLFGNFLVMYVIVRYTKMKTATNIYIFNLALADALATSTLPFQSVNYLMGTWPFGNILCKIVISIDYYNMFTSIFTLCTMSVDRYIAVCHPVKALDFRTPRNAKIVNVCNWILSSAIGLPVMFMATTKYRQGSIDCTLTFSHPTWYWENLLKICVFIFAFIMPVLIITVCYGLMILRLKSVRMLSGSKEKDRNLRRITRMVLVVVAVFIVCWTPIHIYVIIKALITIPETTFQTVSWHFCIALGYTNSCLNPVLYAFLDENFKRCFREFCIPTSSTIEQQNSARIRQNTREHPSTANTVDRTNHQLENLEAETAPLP
Sequence of KOR-1 (P33534 whole entry): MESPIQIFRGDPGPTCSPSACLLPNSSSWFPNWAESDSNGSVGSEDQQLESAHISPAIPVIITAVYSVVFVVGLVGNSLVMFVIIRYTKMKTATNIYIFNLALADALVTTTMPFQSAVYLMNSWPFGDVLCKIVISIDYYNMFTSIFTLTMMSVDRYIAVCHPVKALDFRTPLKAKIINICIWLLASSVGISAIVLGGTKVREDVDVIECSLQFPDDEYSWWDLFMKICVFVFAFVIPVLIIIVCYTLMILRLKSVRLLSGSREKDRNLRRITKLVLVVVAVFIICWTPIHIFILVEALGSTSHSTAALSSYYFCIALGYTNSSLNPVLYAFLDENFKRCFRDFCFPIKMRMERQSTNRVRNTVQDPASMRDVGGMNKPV

Broadly, the Ki is the dissociation constant of the complex between target and ligand, obtained from inhibition or displacement. In the case of `CC[C@@H]1CN2CC[C@@]3(O)C(=Nc4cccc(OC)c43)[C@@H]2C[C@@H]1/C(=C\OC)C(=O)OC` [Compound 2, (E)-Methyl-2-((2S,3S,7aS)-3-ethyl-7a-hydroxy-8-methoxy-1,2,3,4,6,7,7a,12b-octahydroindolo[2,3-a]quinolizin-2-yl)-3-methoxyacrylate], the “functional character at MOR-1” value at MOR-1 is given as “partial agonist”. At KOR-1, the “functional character at KOR-1” value was “weak KOR-1 and DOR-1 antagonist”. On DOR-1, the “functional character at DOR-1” value is “weak KOR-1 and DOR-1 antagonist”. In addition, in series [1], the Ki is over 10 µM.

Consider `CC[C@@H]1CN2CC[C@]3(Nc4cccc(OC)c4C3=O)[C@@H]2C[C@@H]1/C(=C\OC)C(=O)OC` [Compound 3, (E)-Methyl-2-((1′S,6′S,7′S)-6′-ethyl-4-methoxy-3-oxo-3′,5′,6′,7′,8′,8a′-hexahydro-2′H-spiro[indoline-2,1′-indolizine]-7′-yl)-3-methoxyacrylate], for which the figures for the “decrease of respiratory rate” value in the series on C57BL/6 mice (setting [7]) and in the series with C57BL/6 mice (setting [8]) were “approximately 15%” and “no respiratory depression”, respectively. Also, the “effect on gastrointestinal transit” value is reported as “no further inhibition” in the series with mice [2] (3 at 4 mg/kg sc) and “lowered gastrointestinal transit, but not nearly as much as morphine” in the series with mice [2] (setting [9]). At MOR-1, the “functional character at MOR-1” value was “potent full agonist”. The “ED50 shift after 5 days” value in the series on mice [3] is listed as under 2 fold. For the same compound, in the series on mice [3] (95% CI 42.27 to 65.67), the “mean difference between 3 and morphine groups on day 5” value was 53.97 %MPE. Besides, the “effect of antisense receptor downregulation on analgesic response” value in the series with mice [4] is “only affected in mu receptor downregulated mice (MOR-1 AN)”. Moreover, on 5HT7, the “affinity at 5HT7” value is “poor affinity”. Moreover, at α2A adrenergic receptor, the “affinity at α2A adrenergic receptor” value was “poor affinity”. Besides, the “functional character at KOR-1” value on KOR-1 was “antagonist”. Also, the “antinociceptive activity across mouse strains” value in the series with mice [5] (CD1, C57BL/6 and 129Sv6 mice, sc (Figure S5)) was “equally active”. Besides, in the series on mice [5] (CD1 mice, icv, tail flick, 15 min), the “ED50 (95% CI), intracerebroventricular” value is recorded as 0.38 (0.18- 0.81) μg. For the same compound, the “ED50, exon 1/exon 11 double KO mice” value in the series with mice [5] (E1/E11 MOR-1 KO mice, sc, tail flick) is on record as “no antinociception was observed”. The “affinity at α2C adrenergic receptor” value on α2C adrenergic receptor is reported as “poor affinity”. Moreover, the “functional character at DOR-1” value at DOR-1 is “antagonist”. Further, the “conditioned place preference or aversion” value in the series on mice [6] was “neither preference or aversive behavior”. The “sensitivity of antinociception to antagonists” value in the series with CD1 mice is “insensitive to NTI, norBNI, and yohimbine; also recorded: antagonized by β-FNA and naloxone”.

For `CC[C@@H]1CN2CC[C@]3(Nc4cccc(O)c4C3=O)[C@@H]2C[C@@H]1/C(=C\OC)C(=O)OC` [Compound 4, (E)-Methyl-2-((1′S,6′S,7′S)-6′-ethyl-4-hydroxy-3-oxo-3′,5′,6′,7′,8′,8a′-hexahydro-2′H-spiro[indoline-2,1′-indolizine]-7′-yl)-3-methoxyacrylate], the “functional character at MOR-1” value on MOR-1 is recorded as “MOR-1 agonists”. Also, the “functional character at DOR-1” value on DOR-1 is “DOR-1 antagonists”.

Consider `CC[C@@H]1CN2CC[C@]3(Nc4ccccc4C3=O)[C@@H]2C[C@@H]1/C(=C\OC)C(=O)OC` [Compound 6, (E)-Methyl-2-((1′S,6′S,7′S)-6′-ethyl-3-oxo-3′,5′,6′,7′,8′,8a′-hexahydro-2′H-spiro[indoline-2,1′-indolizin]-7′-yl)-3-methoxyacrylate], for which the “functional character at MOR-1” value at MOR-1 is listed as “MOR-1 agonists”. Further, the “functional character at DOR-1” value at DOR-1 is “DOR-1 antagonists”.

On to `CC[C@@H]1CN2CC[C@]3(Nc4cccc(C#N)c4C3=O)[C@@H]2C[C@@H]1/C(=C\OC)C(=O)OC` [Compound 7, (E)-Methyl-2-((1′S,6′S,7′S)-4-cyano-6′-ethyl-3-oxo-3′,5′,6′,7′,8′,8a′-hexahydro-2′H-spiro[indoline-2,1′-indolizine]-7′-yl)-3-methoxyacrylate], for which, on MOR-1, the “functional character at MOR-1” value is “MOR-1 agonists”. For the same compound, on DOR-1, the “functional character at DOR-1” value is reported as “DOR-1 antagonists”.

As for `CC[C@@H]1CN2CC[C@]3(Nc4cccc(-c5ccccc5)c4C3=O)[C@@H]2C[C@@H]1/C(=C\OC)C(=O)OC` [Compound 8, (E)-Methyl-2-((1′S,6′S,7′S)-6′-ethyl-3-oxo-4-phenyl-3′,5′,6′,7′,8′,8a′-hexahydro-2′H-spiro[indoline-2,1′-indolizine]-7′-yl)-3-methoxyacrylate], the “functional character at MOR-1” value on MOR-1 was “dual MOR-1/DOR-1 agonist”. In addition, the “functional character at DOR-1” value at DOR-1 is given as “dual MOR-1/DOR-1 agonist”.

As for `CC[C@@H]1CN2CC[C@]3(Nc4cccc(-c5ccoc5)c4C3=O)[C@@H]2C[C@@H]1/C(=C\OC)C(=O)OC` [Compound 9, (E)-Methyl-2-((1′S,6′S,7′S)-6′-ethyl-4-(furan-3-yl)-3-oxo-3′,5′,6′,7′,8′,8a′-hexahydro-2′H-spiro[indoline-2,1′-indolizine]-7′-yl)-3-methoxyacrylate], the “functional character at MOR-1” value at MOR-1 is listed as “MOR-1 agonists”. The “functional character at DOR-1” value on DOR-1 is “DOR-1 antagonists”.

With `CN1CC[C@]23c4c5ccc(O)c4O[C@H]2[C@@H](O)C=C[C@H]3[C@H]1C5` [morphine, reference compound], the “decrease of respiratory rate” value is on record as “approximately 50%” in the series on C57BL/6 mice (setting [7]) and “approximately 30%” in the series on C57BL/6 mice (setting [8]). Further, in the series on mice [2] (setting [9]), the “effect on gastrointestinal transit” value is “almost totally eliminated transit”. Further, the “ED50 after 5 days” value in the series with mice [3] (day 5) was 12.1 (7.6–19.4) mg/kg. Also, the ED50 with mice [5] (Mus musculus, sc, 0.25 h, read-out: antinociception sc, ED50 mg/kg (CI)) was 2.5 mg/kg. Besides, the “conditioned place preference or aversion” value in the series with mice [6] is recorded as “significant conditioned place preference”.
